# Assay results as given in patent publication US20120283096A1, “AGENT FOR IMPROVING PLANT GROWTH, SEEDS, AND METHOD FOR IMPROVING PLANT GROWTH” (Incorporated Administrative Agency National Agricu lture …, priority 2010, published 2012).
# Tests used:
# barley [1] = assay: Avoidance of wet damage to barley in a poorly-drained paddy field (Example 7, FIG. 21); assay type: in vivo
# Source text: To a poorly-drained paddy field in Chikugo City, Fukuoka Prefecture, 1.2 t/10 a of cow manure and ammonium sulfate in an equivalent amount of 6 kg/10 a in terms of nitrogen were applied. In November 2009, 9 kg/10 a of barley seed (branded as Nishinochikara) was planted. In February 2010, the paddy field was partitioned by corrugated plates into eight areas 50 cm×70 cm each. On Feb. 19, 2010 or Mar. 17, 2010, ammonium molybdophosphate was applied in equivalents amounts of 0, 0.03, 0.1, 0.3 mol/m^2 in terms of molybdenum. On May 11, 2010, the shoots of the barley in the areas partitioned from one another by the corrugated plates were harvested, and the dry weight was obtained.
# sulfide ion generation = assay: Inhibition of sulfide ion generation, paddy seeds covered with slightly-soluble substances (Example 2-3, FIG. 9); details: approximately 0.1 mmol/g (per dry seeds) in terms of molybdenum or tungsten
# Source text: The water on slightly germinated seeds was lightly wiped off, and immediately after that, the seeds were put with (lightly covered with) various amounts of the slightly-soluble substances shown in Table 1. […] The number of days for which sulfide ion generation was inhibited and the proportion of seedling establishment were examined.
# paddy seeds = assay: Possibility of growth of paddy seeds in tank farming without soil (Example 3); details: in vivo
# Description: The decay-inhibiting effect of molybdenum-containing substances in tank farming without soil was examined.
# The possibility of growth and the inhibition of decay were determined in the same manner as above.
# barley [2] = assay: Seedling establishment of barley seeds with ammonium molybdophosphate (Example 5, FIG. 12); assay type: in vivo; details: 20° C. and 30° C., after two weeks
# Description: As in Example 4-1, ammonium sulfate in an equivalent amount of 10 g/m^2 in terms of nitrogen and potassium chloride equivalent to 5 g/m^2 of potassium as potassium oxide were added as a solution to paddy humid soil, on the condition that the weight of dry soil is 100 kg/m^2. The soil was placed into each container (in the shape of a cylinder approximately 7 cm in diameter) in an amount equivalent to 100 g of dry soil, shaken for approximately one hour, and left at rest for two days at 4° C. It should be noted, however, that the soil-to-liquid ratio was 0.7. On this condition, the soil surface became substantially as high as the water surface. Barley seeds (branded as Nishinochikara) and soybean seeds (branded as Fukuyutaka) not subjected to treatment such as soaking in advance were soaked in water for one minute. Immediately after the extra water was removed, the seeds were put with a […] molybdenum amount of ammonium molybdophosphate (purchased from Wako Pure Chemical Industries, Ltd.) per gram of dry seed. The seeds were then half-buried in the samples of soil. […] Six containers were allotted for each condition, and the proportion of seedling establishment (proportion of individual plants that survived) was measured after two weeks.
# wheat = assay: Seedling establishment of wheat seeds in humid soil (Example 6-1, FIG. 20b); assay type: in vivo; details: 0.01 mmol to 0.5 mmol molybdenum per gram of dry seed, 20° C., after two weeks
# Description: As in Example 4-1, ammonium sulfate in an equivalent amount of 10 g/m^2 in terms of nitrogen and potassium chloride equivalent to 5 g/m^2 of potassium as potassium oxide were added as a solution to paddy humid soil in terms of 100 kg/m^2 of dry soil with a soil-to-liquid ratio of 0.7. The soil was placed into each container (in the shape of a cylinder approximately 7 cm in diameter) in an amount equivalent to 100 g of dry soil. The soil surface was flattened by giving it a slight press with a flat plate. Then, the soil was left at rest for one day at 4° C. […] The seeds were then half-buried in the soil. After that, at a constant temperature of 20° C., the water level was kept by adding water to such an extent that the seeds were slightly covered with water. Six containers were allotted for each condition, and the proportion of seedling establishment (proportion of individual plants that survived) was measured after two weeks. It should be noted that in each of FIGS. 20a and 20b, the horizontal axis represents the number of moles (mmol) of molybdenum that adhered per gram of dry seed. In each of FIGS. 20a and 20b, the dots correspond to the numbers of moles of 0, 0.01, 0.02, 0.05, 0.1, 0.2, and 0.5 mmol, starting from the left. […]
# paddy rice = assay: Seedling establishment of coated paddy seeds in submerged soil containers (Examples 4-1 to 4-4b, FIGS. 11, 14-19c); assay type: in vivo; details: germinated seeds, 30° C.
# Description: The germinated paddy seeds were soaked for one minute in a tenfold diluted solution of a commercially available laundry starch (manufactured by Rocket Soap Co., Ltd.; My Laundry Starch) containing approximately a little less than 10% by weight of polyvinyl alcohol, centrifuged at 1000 rpm for removal of the extra solution, and, immediately after that, lightly covered with different amounts of ammonium molybdophosphate, whereby seeds with different amounts of ammonium molybdophosphate were prepared.
# (§1) It should also be noted that in each of FIGS. 14 through 15b, the horizontal axis represents the number of moles (mmol) of molybdenum or tungsten that adhered per gram of dry seed. In each of FIGS. 14 through 15b, the dots correspond to the numbers of moles of 0, 0.02, 0.05, 0.1, 0.2, 0.5, 1, and 2 mmol, starting from the left.
# as §1, with “should” for “should also”, “16” for “14”, “18,” for “15b,”, “molybdenum” for “molybdenum or tungsten”
# It should be noted that in FIG. 19a, the horizontal axis represents the number of moles (mmol) of molybdenum that adhered per gram of dry seed. In FIG. 19a, the dots correspond to the numbers of moles of 0, 0.02, 0.05, 0.1, 0.2, 0.5, 1, and 2 mmol, starting from the left.
# The resulting seeds were allowed to spend time in a sufficiently wet condition so that the iron rusted, and then allowed to further spend overnight. […] Six containers were allotted for each condition, and the proportion of seedling establishment and the standard error were examined. It should be noted that in FIG. 19b, the horizontal axis represents the number of moles (mmol) of molybdenum that adhered per gram of dry seed. In FIG. 19b, the dots correspond to the numbers of moles of 0, 0.02, 0.05, 0.1, 0.2, 0.5, 1, and 2 mmol, starting from the left.
# Six containers were allotted for each condition, and the proportion of seedling establishment and the standard error were examined. It should be noted that in FIG. 19c, the horizontal axis represents the actual weight ratios of 25 wt % calcium peroxide that adhered with respect to the weight of dry seed. In FIG. 19c, the dots correspond to the actual weight ratios of 25 wt % calcium peroxide of 0, 0.01, 0.02, 0.05, 0.1, 0.2, 0.5, and 1 time, starting from the left.
substance,measurement,setting,value
Triammonium 12-moblydo(VI)phosphate trihydrate [Ammonium molybdophosphate],"dry weight of the shoots at harvest time, trend with amount applied",barley [1]; 0.03 to 0.3 mol/m^2 in terms of molybdenum,increase in dry weight of the shoots
same,dry weight of the shoots at harvest time,barley [1]; approximately 0.3 mol/m^2 molybdenum applied in February,approximately 0.25 kg/m^2
same,number of days for which sulfide ion generation was inhibited,sulfide ion generation,fourteen
same,"Possibility of growth, Amount of molybdenum or tungsten added to seed",paddy seeds,> 1 mmol/g
same,proportion of seedling establishment,barley [2],improvements in proportion of seedling establishment
same,proportion of seedling establishment,wheat,improvements in proportion of seedling establishment
same,molybdenum or tungsten amount leading to improvements in proportion of seedling establishment,"paddy rice; polyvinyl alcohol adhesive, compared with 0 mmol/g",≥ 0.02 mmol per gram of dry seeds
same,proportion of seedling establishment,"paddy rice; molybdenum amount of 0.5 mmol/g or more, FIG. 11",~80%
